Patent US20070128217A1 (priority 2003, published 2007)

Legend:
[1] = tested on: rabbit serum obtained by immunizing a rabbit with the SARS-CoV strain Frankfurt 1; assay type: binding; design: Binding of a rabbit serum to linear peptides / Binding of a rabbit serum to looped peptides / Rabbit serum linear peptides / Rabbit serum looped peptides / Binding of a rabbit serum to linear peptides of protein N of SARS-CoV Urbani (Rabbit serum linear peptides) / Binding of a rabbit serum to looped/cyclic peptides of protein N of SARS-CoV Urbani (Rabbit serum looped peptides): unit not given here
[2] = tested on: antibodies in sera from SARS patients (sera 1a, 1b, 2, 6, 37, 62, London, SARS-yellow, SARS-green); assay type: binding, human; design: Binding of serum 6 to linear peptides of protein X1 of SARS-CoV Urbani / Binding of serum 37 to linear peptides of protein X1 of SARS-CoV Urbani / Binding of serum 6 to looped/cyclic peptide (PEPSCAN-ELISA) / Binding of serum 37 to looped/cyclic peptide (PEPSCAN-ELISA) / Binding of serum 37 to looped/cyclic peptides of protein X1 of SARS-CoV Urbani / Binding of serum 6 to linear peptides of protein X2 / Binding of serum 37 to linear peptides of protein X2 / Binding of serum 37 to looped/cyclic peptides of protein X2 of SARS-CoV Urbani / Binding of serum 6 to linear peptides of protein M of SARS-CoV Urbani / Binding of serum 37 to linear peptides of protein M of SARS-CoV Urbani / Binding of serum 6 to looped/cyclic peptides of protein M of SARS-CoV Urbani / Binding of serum 37 to looped/cyclic peptides of protein M of SARS-CoV Urbani / Binding of serum 6 to linear peptides of protein X3 of SARS-CoV Urbani / Binding of serum 37 to linear peptides of protein X3 of SARS-CoV Urbani / Binding of serum 37 to looped/cyclic peptides of protein X3 of SARS-CoV Urbani / Binding of serum 6 to linear peptides of protein X4 of SARS-CoV Urbani / Binding of serum 37 to linear peptides of protein X4 of SARS-CoV Urbani / Binding of serum 37 to looped/cyclic peptides of protein X4 of SARS-CoV Urbani / Binding of serum 6 to linear peptides of protein X5 of SARS-CoV Urbani / Binding of serum 37 to linear peptides of protein X5 of SARS-CoV Urbani / Binding of serum 37 to looped/cyclic peptides of protein X5 of SARS-CoV Urbani / Binding of serum 6 to linear peptides of protein N of SARS-CoV Urbani / Binding of serum 37 to linear peptides of protein N of SARS-CoV Urbani / Binding of serum 6 to linear peptide (PEPSCAN-ELISA) / Binding of serum 1a to looped/cyclic peptides of protein N of SARS-CoV Urbani / Binding of serum 1b to looped/cyclic peptides of protein N of SARS-CoV Urbani / Binding of serum 2 to looped/cyclic peptides of protein N of SARS-CoV Urbani / Binding of serum 6 to looped/cyclic peptides of protein N of SARS-CoV Urbani / Binding of serum 37 to looped/cyclic peptides of protein N of SARS-CoV Urbani / Binding of serum 62 to looped/cyclic peptides of protein N of SARS-CoV Urbani / Binding of serum London to looped/cyclic peptides of protein N of SARS-CoV Urbani / Binding of serum SARS-green to looped/cyclic peptides of protein N of SARS-CoV Urbani: unit not given here
[3] = tested on: control sera (pooled serum of ten healthy LUMC hospital workers; commercial negative donor pooled serum from the Dutch bloodbank); assay type: binding, human; design: Binding of Control serum LUMC to linear peptides / Binding of Control serum Blood-bank to linear peptides / Binding of Control serum LUMC to looped peptides / Binding of Control Serum Blood-Bank to Looped peptides / Binding of Control serum LUMC to linear peptides of the protein M of SARS-CoV Urbani / Binding of Control serum Blood-bank to linear peptides of the protein M of SARS-CoV Urbani / Binding of Control serum LUMC to looped peptides of the protein M of SARS-CoV Urbani / Binding of Control Serum Blood-Bank to Looped peptides of the protein M of SARS-CoV Urbani: unit not given here

LTLIVFTSCELYHYQ
Rabbit serum linear peptides [1]: 0.5
Rabbit serum looped peptides [1]: 0.3
Binding of serum 1a to linear peptides of protein X4 of SARS-CoV Urbani [2]: 0.7
Binding of serum 1a to looped/cyclic peptides of protein X4 of SARS-CoV Urbani [2]: 0.8
Binding of serum 1b to linear peptides of protein X4 of SARS-CoV Urbani [2]: 0.6
Binding of serum 1b to looped/cyclic peptides of protein X4 of SARS-CoV Urbani [2]: 0.7
Binding of serum 2 to linear peptides of protein X4 of SARS-CoV Urbani [2]: 0.5
Binding of serum 2 to looped/cyclic peptides of protein X4 of SARS-CoV Urbani [2]: 0.7
Binding of serum 6 to linear peptides of protein X4 of SARS-CoV Urbani [2]: 0.5
Binding of serum 6 to looped/cyclic peptides of protein X4 of SARS-CoV Urbani [2]: 0.5
Binding of serum 37 to linear peptides of protein X4 of SARS-CoV Urbani [2]: 0.7
Binding of serum 37 to looped/cyclic peptides of protein X4 of SARS-CoV Urbani [2]: 0.7
Binding of serum 62 to linear peptides of protein X4 of SARS-CoV Urbani [2]: 0.8
Binding of serum 62 to looped/cyclic peptides of protein X4 of SARS-CoV Urbani [2]: 0.7
Binding of serum London to linear peptides of protein X4 of SARS-CoV Urbani [2]: 0.7
Binding of serum London to looped/cyclic peptides of protein X4 of SARS-CoV Urbani [2]: 0.3
Binding of serum SARS-green to linear peptides of protein X4 of SARS-CoV Urbani [2]: 0.7
Binding of serum SARS-green to looped/cyclic peptides of protein X4 of SARS-CoV Urbani [2]: 0.4
Binding of serum SARS-yellow to linear peptides of protein X4 of SARS-CoV Urbani [2]: 0.4
Binding of serum SARS-yellow to looped/cyclic peptides of protein X4 of SARS-CoV Urbani [2]: 0.7
Binding of Control Serum Blood-Bank to Looped peptides [3]: 0.7
Binding of Control serum Blood-bank to linear peptides [3]: 0.7
Binding of Control serum LUMC to linear peptides [3]: 0.7
Binding of Control serum LUMC to looped peptides [3]: 0.8

LVAAGMEAQFLYLYA
Binding of a rabbit serum to linear peptides [1]: 0.1
Binding of a rabbit serum to looped peptides [1]: 0.6
Binding of serum 1a to linear peptides of protein X1 of SARS-CoV Urbani [2]: 0.8
Binding of serum 1a to looped/cyclic peptide (PEPSCAN-ELISA) [2]: 0.5
Binding of serum 1b to linear peptides of protein X1 of SARS-CoV Urbani [2]: 0.7
Binding of serum 1b to looped/cyclic peptide (PEPSCAN-ELISA) [2]: 0.4
Binding of serum 2 to linear peptides of protein X1 of SARS-CoV Urbani [2]: 0.6
Binding of serum 2 to looped/cyclic peptide (PEPSCAN-ELISA) [2]: 0.5
Binding of serum 6 to linear peptides of protein X1 of SARS-CoV Urbani [2]: 0.4
Binding of serum 6 to looped/cyclic peptide (PEPSCAN-ELISA) [2]: 0.3
Binding of serum 37 to linear peptides of protein X1 of SARS-CoV Urbani [2]: 0.6
Binding of serum 37 to looped/cyclic peptide (PEPSCAN-ELISA) [2]: 0.5
Binding of serum 62 to linear peptides of protein X1 of SARS-CoV Urbani [2]: 0.5
Binding of serum 62 to looped/cyclic peptide (PEPSCAN-ELISA) [2]: 0.5
Binding of serum London to linear peptides of protein X1 of SARS-CoV Urbani [2]: 0.2
Binding of serum London to looped/cyclic peptide (PEPSCAN-ELISA) [2]: 0.2
Binding of serum SARS-green to linear peptides of protein X1 of SARS-CoV Urbani [2]: 0.2
Binding of serum SARS-green to looped/cyclic peptide (PEPSCAN-ELISA) [2]: 0.3
Binding of serum SARS-yellow to linear peptides of protein X1 of SARS-CoV Urbani [2]: 0.3
Binding of serum SARS-yellow to looped/cyclic peptide (PEPSCAN-ELISA) [2]: 0.6
Binding of Control Serum Blood-Bank to Looped peptides [3]: 0.5
Binding of Control serum Blood-bank to linear peptides [3]: 0.4
Binding of Control serum LUMC to linear peptides [3]: 1.1
Binding of Control serum LUMC to looped peptides [3]: 0.6

LVDFQVTIAEILIII
Rabbit serum linear peptides [1]: 0.3
Rabbit serum looped peptides [1]: 0.3
Binding of serum 1a to linear peptides of protein X3 of SARS-CoV Urbani [2]: 0.8
Binding of serum 1a to looped/cyclic peptides of protein X3 of SARS-CoV Urbani [2]: 0.7
Binding of serum 1b to linear peptides of protein X3 of SARS-CoV Urbani [2]: 0.6
Binding of serum 1b to looped/cyclic peptides of protein X3 of SARS-CoV Urbani [2]: 0.4
Binding of serum 2 to linear peptides of protein X3 of SARS-CoV Urbani [2]: 0.7
Binding of serum 2 to looped/cyclic peptides of protein X3 of SARS-CoV Urbani [2]: 0.6
Binding of serum 6 to linear peptides of protein X3 of SARS-CoV Urbani [2]: 0.5
Binding of serum 6 to looped/cyclic peptides of protein X3 of SARS-CoV Urbani [2]: 0.3
Binding of serum 37 to linear peptides of protein X3 of SARS-CoV Urbani [2]: 0.6
Binding of serum 37 to looped/cyclic peptides of protein X3 of SARS-CoV Urbani [2]: 0.5
Binding of serum 62 to linear peptides of protein X3 of SARS-CoV Urbani [2]: 0.6
Binding of serum 62 to looped/cyclic peptides of protein X3 of SARS-CoV Urbani [2]: 0.6
Binding of serum London to linear peptides of protein X3 of SARS-CoV Urbani [2]: 0.6
Binding of serum London to looped/cyclic peptides of protein X3 of SARS-CoV Urbani [2]: 0.2
Binding of serum SARS-green to linear peptides of protein X3 of SARS-CoV Urbani [2]: 0.4
Binding of serum SARS-green to looped/cyclic peptides of protein X3 of SARS-CoV Urbani [2]: 0.2
Binding of serum SARS-yellow to linear peptides of protein X3 of SARS-CoV Urbani [2]: 0.7
Binding of serum SARS-yellow to looped/cyclic peptides of protein X3 of SARS-CoV Urbani [2]: 0.6
Binding of Control Serum Blood-Bank to Looped peptides of the protein X3 of SARS-CoV Urbani [3]: 0.6
Binding of Control serum Blood-bank to linear peptides of the protein X3 of SARS-CoV Urbani [3]: 0.8
Binding of Control serum LUMC to linear peptides of the protein X3 of SARS-CoV Urbani [3]: 0.9
Binding of Control serum LUMC to looped peptides of the protein X3 of SARS-CoV Urbani [3]: 0.7

LVIGAVIIRGHLRMA
Rabbit serum linear peptides [1]: 0.2
Rabbit serum looped peptides [1]: 1.4
Binding of serum 1a to linear peptides of protein M of SARS-CoV Urbani [2]: 0.7
Binding of serum 1a to looped/cyclic peptides of protein M of SARS-CoV Urbani [2]: 0.8
Binding of serum 1b to linear peptides of protein M of SARS-CoV Urbani [2]: 0.5
Binding of serum 1b to looped/cyclic peptides of protein M of SARS-CoV Urbani [2]: 0.4
Binding of serum 2 to linear peptides of protein M of SARS-CoV Urbani [2]: 0.5
Binding of serum 2 to looped/cyclic peptides of protein M of SARS-CoV Urbani [2]: 0.8
Binding of serum 6 to linear peptides of protein M of SARS-CoV Urbani [2]: 0.6
Binding of serum 6 to looped/cyclic peptides of protein M of SARS-CoV Urbani [2]: 1.2
Binding of serum 37 to linear peptides of protein M of SARS-CoV Urbani [2]: 0.4
Binding of serum 37 to looped/cyclic peptides of protein M of SARS-CoV Urbani [2]: 0.7
Binding of serum 62 to linear peptides of protein M of SARS-CoV Urbani [2]: 0.4
Binding of serum 62 to looped/cyclic peptides of protein M of SARS-CoV Urbani [2]: 0.8
Binding of serum London to linear peptides of protein M of SARS-CoV Urbani [2]: 0.3
Binding of serum SARS-green to linear peptides of protein M of SARS-CoV Urbani [2]: 0.4
Binding of serum SARS-green to looped/cyclic peptides of protein M of SARS-CoV Urbani [2]: 0.3
Binding of serum SARS-yellow to linear peptides of protein M of SARS-CoV Urbani [2]: 0.3
Binding of serum SARS-yellow to looped/cyclic peptides of protein M of SARS-CoV Urbani [2]: 0.7
Binding of Control Serum Blood-Bank to Looped peptides of the protein M of SARS-CoV Urbani [3]: 0.7
Binding of Control serum Blood-bank to linear peptides of the protein M of SARS-CoV Urbani [3]: 0.6
Binding of Control serum LUMC to linear peptides of the protein M of SARS-CoV Urbani [3]: 0.7
Binding of Control serum LUMC to looped peptides of the protein M of SARS-CoV Urbani [3]: 0.7
